As usually defined, the IC50 is the concentration at which inhibition is half-maximal.

The target of the first test is Recombinant human MALT-1 (amino acids 340-824) (Homo sapiens (Human), UniProt Q9UDY8). Briefly: MALT-1 inhibition assay (fluorogenic substrate Ac-LRSR-Rh110-DP). The format is biochemical. Conditions: recombinant human MALT-1, substrate Ac-LRSR-Rh110-DP. The protocol: MALT-1 paracaspase activity was measured using the fluorogenic substrate Ac-LRSR-Rh110-DP (purchased from Biosantan GmbH). […] The reaction was initiated by addition of substrate. Final concentrations of MALT-1 and substrate were 3 nM and 10 μM respectively. Reactions were incubated in the dark for 60 minutes at 25° C. […] Percent inhibition values were calculated from relative fluorescence units at different doses and fitted to a 4-parameter logistic curve to determine IC50 values (see Table 1).
Sequence of Recombinant human MALT-1 (amino acids 340-824) (Q9UDY8 340-824): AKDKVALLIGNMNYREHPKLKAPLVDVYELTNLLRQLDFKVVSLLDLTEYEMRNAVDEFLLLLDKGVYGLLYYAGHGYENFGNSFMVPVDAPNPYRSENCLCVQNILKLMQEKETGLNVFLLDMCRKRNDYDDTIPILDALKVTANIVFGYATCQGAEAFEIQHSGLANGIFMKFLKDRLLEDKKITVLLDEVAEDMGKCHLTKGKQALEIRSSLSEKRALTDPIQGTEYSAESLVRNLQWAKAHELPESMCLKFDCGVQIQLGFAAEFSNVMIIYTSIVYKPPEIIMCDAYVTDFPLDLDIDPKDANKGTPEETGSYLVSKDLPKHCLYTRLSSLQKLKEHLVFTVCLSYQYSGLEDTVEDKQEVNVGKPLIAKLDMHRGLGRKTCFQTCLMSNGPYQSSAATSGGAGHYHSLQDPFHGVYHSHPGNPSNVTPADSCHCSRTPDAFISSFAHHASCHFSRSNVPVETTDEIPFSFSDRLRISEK
Take `CN(C(=O)[C@H]1CNC(=O)C1)[C@H](c1ccc(N2CCCc3c2cnc2cc(Cl)nn32)cc1)C(F)(F)F` (stereo in doubt) [CPD0077244, (3 rel-R)—N-[(1R)-1-[4-(4-chloro-2,3,7,10-tetrazatricyclo[7.4.0.0^2,6]trideca-1(9),3,5,7-tetraen-10-yl)phenyl]-2,2,2-trifluoro-ethyl]-N-methyl-5-oxo-pyrrolidine-3-carboxamide]: the half-inhibitory concentration (IC50) was 581 nM.

With `C[C@@H]1CCN(c2ccc([C@H](N(C)C(=O)[C@@H]3CNC(=O)C3)C(F)(F)F)cc2)c2cnc3cc(Cl)nn3c21` [CPD0074548], the half-maximal inhibitory concentration (IC50) is 46 nM. As to “N-[(1S)-1-[4-[[2-chloro-8-[(1S)-1-methoxyethyl]imidazo[1,2-b]pyridazin-7-yl]amino]phenyl]-2,2,2-trifluoro-ethyl]-N-methyl-1,1-dioxo-thiane-4-carboxamide [CPD0084508]”, the IC50 worked out at 182 nM.

As for `CN1C[C@@H](C(=O)N(C)[C@@H](c2ccc(N3CCCc4c3cnc3cc(Cl)nn43)cc2)C(F)(F)F)NC1=O` (relative stereo) [CPD0075574, (4rel S)-N-[(1S)-1-[4-(4-chloro-2,3,7,10-tetrazatricyclo[7.4.0.0^2,6]trideca-1(9),3,5,7-tetraen-10-yl)phenyl]-2,2,2-trifluoro-ethyl]-N,1-dimethyl-2-oxo-imidazolidine-4-carboxamide], the IC50 turned out to be 80 nM.

Take `CO[C@@H](C)c1c(Nc2ccc([C@H](N(C)C(=O)[C@H]3CC[S@](=N)(=O)CC3)C(F)(F)F)cc2)cnn2cc(Cl)nc12` (relative stereo) [CPD0082473, (1rel-r, 4rel-r) N-[(1S)-1-[4-[[2-chloro-8-[(1 S)-1-methoxyethyl]imidazo[1,2-b]pyridazin-7-yl]amino]phenyl]-2,2,2-trifluoro-ethyl]-1-imino-N-methyl-1-oxo-thiane-4-carboxamide]: the IC50 turned out to be 52 nM. Regarding `COc1ccc2ncc(Nc3ccc([C@H](N(C)C(=O)C4CCS(=O)(=O)CC4)C(F)(F)F)cc3)c(COC3CC3)c2n1` [CPD0074048], the IC50 turned out to be 163 nM.

With `CC(=O)N1CCC(C(=O)N(C)[C@@H](c2ccc(N3CCCc4c3cnc3cc(F)nn43)cc2)C(F)(F)F)CC1` [CPD0074050, 1-acetyl-N-methyl-N-[(1S)-2,2,2-trifluoro-1-(4-{4-fluoro-2,3,7,10-tetraazatricyclo[7.4.0.0^2,6]trideca-1(9),3,5,7-tetraen-10-yl}phenyl)ethyl]piperidine-4-carboxamide], the IC50 worked out at 85 nM. With `CN(C(=O)[C@@H]1CNC(=O)C1)[C@H](c1ccc(N2CCCc3c2cnc2cc(Cl)nn32)cc1)C(F)(F)F` (stereo in doubt) [CPD0077245, (3 rel-S)—N-[(1R)-1-[4-(4-chloro-2,3,7,10-tetrazatricyclo[7.4.0.0^2,6]trideca-1(9),3,5,7-tetraen-10-yl)phenyl]-2,2,2-trifluoro-ethyl]-N-methyl-5-oxo-pyrrolidine-3-carboxamide], the IC50 turned out to be 355 nM. On the same count and under the same terms, the value for `COc1ccc2ncc(Nc3ccc([C@@H](N(C)C(=O)[C@H]4CC[S@@](=N)(=O)CC4)C(F)(F)F)cc3)c([C@@H](C)OC)c2n1` (stereo in doubt) [CPD0077188, (1 rel-r,4rel-r)-1-imino-N-methyl-1-oxo-N-[(1R)-2,2,2-trifluoro-1-[4-({6-methoxy-4-[(1 rel-R)-1-methoxyethyl]-1,5-naphthyridin-3-yl}amino)phenyl]ethyl]-1λ^6-thiane-4-carboxamide] was 255 nM; that for `CO[C@@H](C)c1c(Nc2ccc([C@H](N(C)C(=O)[C@H]3CCC(=O)N3)C(F)(F)F)cc2)cnn2cc(Cl)nc12` [CPD0082469, (2R)-N-[(1S)-1-[4-[[2-chloro-8-[(1 S)-1-methoxyethyl]imidazo[1,2-b]pyridazin-7-yl]amino]phenyl]-2,2,2-trifluoro-ethyl]-N-methyl-5-oxo-pyrrolidine-2-carboxamide] was 45 nM.

Regarding `CN(C(=O)C1CC(O)C1)[C@@H](c1ccc(N2CCCc3c2cnc2cc(Cl)nn32)cc1)C(F)(F)F` (stereo partly drawn) [CPD0073055], the IC50 worked out at 46 nM.

With `COc1ccc2ncc(Nc3ccc([C@H](N(C)C(=O)C4CCS(=O)(=O)CC4)C(F)(F)F)cc3)c(C3(F)COC3)c2n1` [CPD0076413, N-methyl-1,1-dioxo-N-[(1S)-2,2,2-trifluoro-1-[4-[[4-(3-fluorooxetan-3-yl)-6-methoxy-1,5-naphthyridin-3-yl]amino]phenyl]ethyl]thiane-4-carboxamide], the 50% inhibitory concentration (IC50) was determined as 109 nM.

With `C[C@@H]1CCc2c(cnc3cc(Cl)nn23)N1c1ccc([C@H](N(C)C(=O)[C@H]2CC[S@](=N)(=O)CC2)C(F)(F)F)cc1` (relative stereo) [CPD0074551, (1rel r 4rel r) N-[(1S)-1-[4-[(11-rel R)-4-chloro-11-methyl-2,3,7,10-tetrazatricyclo[7.4.0.0^2,6]trideca-1(9),3,5,7-tetraen-10-yl]phenyl]-2,2,2-trifluoro-ethyl]-1-imino-N-methyl-1-oxo-thiane-4-carboxamide], the 50% inhibitory concentration (IC50) was determined as 57 nM.

Another test relates to IL-2 secretion by human effector memory T cells (TEM). Briefly: Effector memory T cells IL-2 release assay. The class given is cell-based. Conditions: T-cell; human CD4+ effector memory T cells, CD3/CD28 bead stimulation, 24 h; read-out: CD4TC IL2 IC50. As for the experimental part: Effector Memory T Cells IL-2 Release Assay
Test compound-mediated inhibition of NFκB signalling in T cells was assessed by quantification of the IL-2 secretion by human effector memory T cells (TEM) upon treatment and stimulation. Human TEM cells were isolated from buffy coats of healthy donors obtained from the French blood bank. First, peripheral blood mononuclear cells (PBMC) were purified from buffy coats diluted 1:1 with DPBS (Gibco, cat #14190-094) by Pancoll (PAN BIOTECH, cat #P04-60500) density gradient centrifugation at 400×g for 20 minutes. TEM cells were further enriched by negative immuno-magnetic cell sorting using a human CD4+ Effector Memory T Cell Isolation Kit (Miltenyi, cat #130-094-125) according to the manufacturer's instructions. Aliquots of 3×10E6 purified TEM cells were kept frozen in Cryo-SFM medium (PromoCell, cat #C-29912) in gas phase nitrogen until used. Cell purity was verified by flow cytometry analysis of 200 000 PFA-fixed cells previously labelled with monoclonal antibodies anti-CD4-PerCP-Cy5.5 (BD Pharmigen, cat #332772), anti-CD8-V500 (BD Biosciences, cat #561617), anti-CD14-Pacific Blue (Biolegend, cat #325616), anti-CD45 RA-FITC (Biolegend, cat #304106) and anti-CCR7-APC (in CD4+ Effector Memory T Cell Isolation Kit, Miltenyi, cat #130-094-125).
TEM cells were resuspended in complete RPMI medium composed of: RPMI 1640 (Gibco, cat #31870-025), 10% heat inactivated fetal bovine serum (Sigma, cat #F7524), 2 mM GlutaMAX (Gibco, cat #35050-038), 1 mM sodium pyruvate 100× (Gibco, cat #11360-039), 1% MEM non-essential amino acids solution (Gibco, cat #11140-035) and 100 U/mL penicillin, 100 μg/mL streptomycin (Sigma-Aldrich, cat #11074440001). 5,000 cells per well were plated onto flat clear bottom 384 well plates (Corning, cat #3770). 5,000 Dynabeads Human T-Activator CD3/CD28 (Gibco, cat #11132D) were added to each well for cell stimulation. Finally, 10 doses of test compound, originally prepared in DMSO by serial semi-log step dilution, were also added to cells in triplicate wells. Final DMSO concentration in wells was 0.1% in a total volume of 100 μL complete medium. Plates were incubated for 24 h at 37° C. in 5% CO2 atmosphere. After incubation, cell suspensions were centrifuged at 400×g and culture supernatants were recovered and stored at −80° C. Cell viability was assessed by flow cytometry after staining the cells with Fixable Viability Dye eFluor 780 (Invitrogen, cat #65-0865-14). IL-2 levels were determined in cell supernatants using an HTRF human IL-2 detection kit (Cisbio, cat #62HIL02PEH). IL-2 data at the different compound doses were fitted to a 4-parameter logistic curve to determine IC50 values, corresponding to the compound concentration leading to 50% reduction of the maximal IL-2 levels observed in each experiment. Viability data were analysed similarly to exclude cytotoxicity as a cause of IL-2 decrease (see Table 1).
Consider `CN(C(=O)C1CCS(=O)(=O)CC1)[C@@H](c1ccc(N2CC[C@@]3(CCOC3)c3c2cnc2cc(Cl)nn32)cc1)C(F)(F)F` [CPD0073762, N-[(1S)-1-[4-[(13rel-R)-4-chlorospiro[2,3,7,10-tetrazatricyclo[7.4.0.0^2,6]trideca-1(9),3,5,7-tetraene-13,3′-tetrahydrofuran]-10-yl]phenyl]-2,2,2-trifluoro-ethyl]-N-methyl-1,1-dioxo-1λ^6-thiane-4-carboxamide], for which the IC50 was found to be 104 nM. As for `CN(C(=O)[C@H]1CS(=O)(=O)CC12COC2)[C@@H](c1ccc(N2CCCc3c2cnc2cc(Cl)nn32)cc1)C(F)(F)F` [CPD0073975, (8rel-S)-N-[(1S)-1-(4-{4-chloro-2,3,7,10-tetraazatricyclo[7.4.0.0^2,6]trideca-1(9),3,5,7-tetraen-10-yl}phenyl)-2,2,2-trifluoroethyl]-N-methyl-6,6-dioxo-2-oxa-6λ^6-thiaspiro[3.4]octane-8-carboxamide], the IC50 is 341 nM. For the compound `COc1ccc2ncc(Nc3ccc([C@H](N(C)C(=O)[C@H]4CCC(=O)N4)C(F)(F)F)cc3)c([C@H](C)OC)c2n1` (relative stereo) [CPD0075581, (2 rel R)-N-methyl-5-oxo-N-[(1S)-2,2,2-trifluoro-1-[4-[6-methoxy-4-[(1 rel S)-1-methoxyethyl]-1,5-naphthyridin-3-yl]amino]phenyl]ethyl]pyrrolidine-2-carboxamide], the IC50 amounted to 29 nM. Same read-out and setting: with `CN(C(=O)C1CCS(=O)(=O)CC1)[C@@H](c1ccc(N2CC[C@]3(CCOC3)c3c2cnc2cc(Cl)nn32)cc1)C(F)(F)F` [CPD0073763, N-[(1S)-1-[4-[(13rel-S)-4-chlorospiro[2,3,7,10-tetrazatricyclo[7.4.0.0^2,6]trideca-1(9),3,5,7-tetraene-13,3′-tetrahydrofuran]-10-yl]phenyl]-2,2,2-trifluoro-ethyl]-N-methyl-1,1-dioxo-1λ^6-thiane-4-carboxamide] the figure was 109 nM; with `C[C@H]1CCN(c2ccc([C@H](N(C)C(=O)[C@H]3CC[S@@](=N)(=O)CC3)C(F)(F)F)cc2)c2cnc3cc(F)nn3c21` (relative stereo) [CPD0074554, (1rel r, 4rel r)1-imino-N-methyl-1-oxo-N-[(1S)-2,2,2-trifluoro-1-[4-[(13 rel S)-4-fluoro-13-methyl-2,3,7,10-tetrazatricyclo[7.4.0.0^2,6]trideca-1(9),3,5,7-tetraen-10-yl]phenyl]ethyl]thiane-4-carboxamide], 170 nM.

Source of the values: patent US20250051327A1, “MALT-1 MODULATORS” (EXSCIENTIA AI LIMITED, priority 2020, published 2025).
